The values that follow are results of earlier work, collected in patent US20080015223A1, “Pyrazole Derivatives as Modulators of the 5-Ht2a Serotonin Receptor Useful for the Treatment of Disorders Related Thereto” (Arena Pharmaceuticals, Inc., priority 2004, published 2008).

The conditions of data set [1]: glaucoma patients.
For data set [2] the following is noted: 24 months of treatment, patients.
For data set [3] the following is noted: humans, lumbar disc herniation.
Data set [4] has as its system rats.
Data set [5] concerns rats. The source holds these as a separate data set.
Data set [6] has as its system JC virus.
Data set [7] concerns spontaneously hypertensive rats.

With `COc1cccc(CCc2ccccc2OCC(CN(C)C)OC(=O)CCC(=O)O)c1` (stereo not drawn) [sarpogrelate], in data set [1], the IOP entry is “significantly lower”. Besides, the “urinary albumin excretion level” value in data set [2] was “significantly reduced”. Further, in data set [3], the “treatment for lower back pain, leg pain and numbness associated with sciatica” value is on record as “effective treatment”. Also, the “analgesic effect on thermal induced pain” value in data set [4] (intraperitoneal administration) is “significant analgesic effect”. Moreover, the “analgesic effect on inflammatory pain” value in data set [4] (intrathecal or intraperitoneal administration) was “significant analgesic effect”.
With `CN1CCN2c3ccccc3Cc3ccccc3C2C1` (stereo not drawn) [Mainserin], the DOCA-salt induced hypertension result in data set [5] is listed as “prevent”.
For `Cc1nc2sccn2c(=O)c1CCN1CCC(=C(c2ccc(F)cc2)c2ccc(F)cc2)CC1` [ritanserin], the “JC virus infection of human glial cells” value in data set [6] is “inhibited”.
As for `O=C(c1ccc(F)cc1)C1CCN(CCn2c(=O)[nH]c3ccccc3c2=O)CC1` [ketanserin], the blood pressure result in data set [7] is “stabilize”. For the same compound, the “JC virus infection of human glial cells” value in data set [6] was “inhibited”.
